Columns and labels:
Adult snails = assay: Molluscicide activity, adult snails; assay type: in vivo; settings: 0/10-2/10 inactive, 3/10-7/10 partially active, 8/10-10/10 active
[1] = test system: newly hatched snails of the strain B. glabrata; assay: Molluscicide activity, newly hatched snails; assay type: in vivo; settings: 24 hours, 26° C, 0/10-2/10 inactive, 3/10-7/10 partially active, 8/10-10/10 active
mites = assay: Leaf Disc Mite Assay; assay type: in vivo; settings: 48 hours, adult mites
Procedure: A stock solution of 50,000 ppm is prepared. The solution consists of 25 percent DMF, 75 percent IPA and approximately 4 percent Tween 20. The stock solution is diluted (1:20) to a concentration of 2500 ppm using as a diluent 70 percent acetone containing 0.1 percent Tween 20. The 2500 ppm solution is used for the initial screen.
Leaf discs 15 mm in diameter are cut from fresh Henderson Bush Lima Bean plants. Discs are then dropped in the appropriate dilution of the chemical being tested.
The leaf discs are allowed to dry and then placed on moistened filter paper in appropriately labeled petri dishes. Ten adult mites are placed on each disc. Nine discs are used for each compound. Percent mortality is determined after 48 hours.
When a compound is rated very active, 1:10 dilutions are made of the 2500 stock.

Mice oral LD 50 = settings: mouse, in vivo, orally

| Molecule | Molluscicide, mortality, Adult (Adult snails; 1 ppm) | Molluscicide, mortality, Adult (Adult snails; 10 ppm) | Molluscicide, mortality, New ([1]; 1 ppm) | Molluscicide, mortality, New ([1]; 10 ppm) | Mites, percent mortality (activity rating) (mites; 2500 ppm) | Mites, percent mortality (activity rating) (mites; 500 ppm) | LD50 (Mice oral LD 50) [mg/kg] |
| --- | --- | --- | --- | --- | --- | --- | --- |
| OC(c1ccc(Cl)cc1)(c1cccs1)C1CC1 (stereo not drawn) [compound 1] | 0/10 | 6/10 | 6/10 | 10/10 | SIA (25-50 percent is slightly active (SIA)) |  |  |
| OC(c1ccc(C(F)(F)F)cc1)(c1cccs1)C1CC1 (stereo not drawn) [compound 2] | 0/10 | 6/10 | 4/10 | 10/10 | SIA (25-50 percent is slightly active (SIA)) |  |  |
| OC(c1ccc(Cl)cc1)(c1ccc(Cl)s1)C1CC1 (stereo not drawn) [compound 4] | 0/10 | 9/10 | 7/10 | 10/10 | VA (80-100 percent mortality are rated very active (VA)) | A (50-80 percent mortality is rated active (A)) |  |
| OC(c1ccc(C(F)(F)F)cc1)(c1ccc(Cl)s1)C1CC1 (stereo not drawn) [compound 5] | 1/10 | 0/10 | 8/10 | 10/10 | VA (80-100 percent mortality are rated very active (VA)) | A (50-80 percent mortality is rated active (A)) | > 1000 |
| Cc1ccc(C(O)(c2ccc(Cl)s2)C2CC2)cc1 (stereo not drawn) [compound 7] | 0/10 | 9/10 | 4/10 | 10/10 |  |  | > 1000 |
| OC(c1ccc(Br)cc1)(c1ccc(Cl)s1)C1CC1 (stereo not drawn) [compound 8] | 3/10 | 9/10 | 10/10 | 10/10 | VA (80-100 percent mortality are rated very active (VA)) |  |  |
| OC(c1ccc(F)cc1)(c1ccc(Cl)s1)C1CC1 (stereo not drawn) [compound 9] | 0/10 | 9/10 | 5/10 | 10/10 |  |  | > 300 |
| α-(5-Chloro-2-Thienyl)4-Chlorophenylcyclopropylmethanol [No. 4] | 0/10 | 0/10 | 0/10 | 0/10 |  |  |  |

From US4022903A, “α-Thienyl and α-substituted thienyl, phenyl and substituted phenyl cyclopropylomethanols useful as biodegradable insecticides and mollusicides” (Abbott Laboratories, priority 1975, dated 1977)
